Results published in patent US10730887B2, “Compound containing tricyclic heteroaryl group” (Hangzhou Innogate Pharma Co., Ltd., priority 2016, dated 2020).

Columns and labels:
[1] = molecular target: EGFR (T790M/L858R) (Homo sapiens, UniProt P00533, L858R/T790M); assay: EGFR (T790M/L858R) kinase activity inhibition, Caliper mobility shift assay; type: biochemical
Procedure: (§1) EGFR and EGFR (T790M/L858R) protein kinase activities were determined using the Caliper mobility shift assay. The compound was dissolved in DMSO and diluted with kinase buffer (EGFR (T790M/L858R): 50 mM HEPES at pH 7.5, 0.0015% Brij-35, 10 mM MgCl2, 2 mM DTT; EGFR: pH 7.5 50 mM HEPES, 0.0015% Brij-35, 10 mM MgCl2, 10 mM MnCl2, 2 mM DTT), 5 μL of 5 times the final concentration of the compound (10% DMSO) was added to a 384-well plate. Add 10 μL of 2.5-fold enzyme (using EGFR and EGFR (1790M/L858R), respectively) and incubate for 10 minutes at room temperature, then add 10 μL of 2.5-fold substrate (Peptide FAM-P22 and ATP) solution. After incubation at 28° C. for 60 minutes, the reaction was stopped by adding 25 μL of stop solution (100 mM HEPES, 0.015% Brij-35, 0.2% Coating Reagent #3, 50 mM EDTA, pH 7.5). Conversion rate data was read on a Caliper EZ Reader II (Caliper Life Sciences). The conversion rate was converted into inhibition rate data (% inhibition rate=(max−conversion rate)/(max−min)*100). Where max is the conversion of the DMSO control and min is the conversion of the enzyme-free control Curves were plotted with compound concentration and inhibition rate on the horizontal and vertical coordinates, and the curve was fitted using XLFit excel add-in version 4.3.1 software and IC50 was calculated.

[2] = molecular target: EGFR (Homo sapiens, UniProt P00533); assay: EGFR kinase activity inhibition, Caliper mobility shift assay; type: biochemical
Procedure: as §1

[3] = molecular target: SYK (Homo sapiens, UniProt P43405); assay: Syk kinase activity inhibition, Caliper mobility shift assay; type: biochemical
Procedure: SYK protein kinase activity was determined using the Caliper mobility shift assay. The compound was dissolved in DMSO and diluted with kinase buffer (20 mM HEPES, 0.01% Triton X-100, 5 mM MgCl2, 1 mM MnCl2, 2 mM DTT), and 5 μL of 5 times final concentration was added to the 384-well plate Compound (10% DMSO). After adding 10 μL of 2.5-fold enzyme (with SYK) solution, incubate for 10 minutes at room temperature, and then add 10 μL of 2.5-fold substrate (Peptide FAM-P22 and ATP) solution. Incubate at 28° C. for 30 minutes, then stop the reaction by adding 25 μL of stop solution (100 mM HEPES, 0.015% Brij-35, 0.2% Coating Reagent #13, 50 mM EDTA, pH 7.5). Conversion rate data was read on a Caliper EZ Reader II (Caliper Life Sciences) The conversion rate was converted into inhibition rate data (% inhibition rate=(max−conversion rate)/(max−min)*100). Where max is the conversion of the DMSO control and min is the conversion of the enzyme-free control. Curves were plotted with compound concentration and inhibition rate on the horizontal and vertical coordinates, and the curve was fitted using XLFit excel add-in version 4.3.1 software and IC50 was calculated.

[4] = molecular target: Jak1 (Homo sapiens, UniProt P23458); assay: Jak1 kinase activity inhibition, Caliper Reader; type: biochemical
Procedure: (§2) Kinase JAk1 and Jak2 enzyme inhibition IC50 evaluation experiments: The buffer was configured with the following components: 50 mM HEPES, pH 7.5, 0.00015% Brij-35. Compounds were placed in a concentration gradient in 100% DMSO and diluted to 10% DMSO with buffer and added to 384 well plates. For example, when the initial concentration of the compound is […], it is made into 12.5 μM with 100% DMSO, and diluted by 5 or 6 concentrations, and then diluted 10-fold with buffer to prepare an intermediate dilution of the compound containing 10% DMSO. Transfer 5 μL, to 384-well plate. The Jak1 and Jak2 enzymes were diluted to the optimal concentration with the following buffer: 50 mM HEPES, pH 7.5, 0.00015% Brij-35, 2 mM DTT. Transfer 10 μL to a 384-well plate and incubate with the compound for 10-15 minutes. The substrate was diluted to the optimal concentration with the following buffer: 50 mM HEPES, pH 7.5, 0.00015% Brij-35, 10 mM MgCl2, adenosine triphosphate at Km. The reaction was initiated by adding 10 μL to a 384-well plate and reacted at 28° C. for 1 hour. The conversion rate was then read using a Caliper Reader and the inhibition rate was calculated. The formula is as follows: Percent inhibition=(max−conversion)/(max−min)*100. Where max is the conversion of the DMSO control and min is the conversion of the enzyme-free control. Fit the IC50 value with XLFit excel add-in version 5.4.0.8. Fitting formula: Y=Bottom+(Top−Bottom)/(1+(IC50/X)^HillSlope).

[5] = molecular target: Jak2 (Homo sapiens, UniProt O60674); assay: Jak2 kinase activity inhibition, Caliper Reader; type: biochemical
Procedure: as §2

[6] = Pharmacokinetic study in mice, intragastric administration; type: in vivo; settings: mouse, male ICR mice, PO dose 5 mg/kg, plasma
Procedure: Instrument: API4000+LC/MS instrument manufactured by AB Sciex. All measurement data was collected and processed by Analyst 1.6.3 software, and data was calculated and processed by Microsoft Excel. Using the DAS 3.2.8 software, the statistical moment method was used to calculate the pharmacokinetic parameters. t mainly includes kinetic parameters Tmax, T½, Cmax, AUC(0-t) and the like Column: ACQUITY UPLC BEH C18 (2.1 mm×50 mm, 1.7 μm), column temperature 40° C.; mobile phase A is water (0.1% formic acid+5 mM ammonium acetate), mobile phase B is acetonitrile (0.1% acetic acid). The flow rate was 0.30 ml/min and the isocratic elution of 90% B was maintained for 1.5 minutes. Injection volume: 5 μL.
Animals: 12 male ICR mice, weighing 22-26 g, were used after 2 days of feeding in the laboratory of the experimental animal center. They were fasted 12 hours before the administration and 4 hours after the administration, and were free to drink during the test. Mice were randomly divided into four groups of 3 animals each. After intragastric administration, blood samples were taken at two different time points in each group.
Solvent: 0.5% Methylcellulose (aqueous solution containing 0.4% Tween 80). Formulation of intragastric administration solution. The compound is accurately weighed, added to the solvent, and sonicated at room temperature for 5 minutes to completely dissolve the drug to prepare a drug solution of 0.33 mg/ml.
Drug sample: A representative compound of the structure represented by the patent formula (I) of the present invention generally adopts a plurality of samples having similar structures (molecular weight difference of more than 2 units), accurately weighed, and administered together (cassette PK). This allows multiple compounds to be screened simultaneously and their oral absorption rates compared. Single drug administration was also used to study the pharmacokinetics of drug samples in mice.
Blood was taken from the eyelids at 0.25, 0.5, 1, 2, 4, 8, 12, and 24 hours after intragastric administration. In the heparin-treated tube, the supernatant was centrifuged for LC-MS/MS analysis.
Accurately weigh the compounds to different concentrations, perform quantitative analysis on the mass spectrometer to establish a standard curve, and then test the concentration of the compound in the above plasma to obtain the concentration of the compound at different time points. All the measured data were collected and processed by the relevant software, and the statistical moment method was used to calculate the pharmacokinetic parameters (mainly including the kinetic parameters Tmax, T1/2, Cmax, AUC(0-t), etc.).

[7] = molecular target: T1, FLT3 (Homo sapiens, UniProt P36888); assay: FLT3 kinase activity inhibition, Caliper mobility shift assay; type: biochemical
T1 sequence (P36888 27-993): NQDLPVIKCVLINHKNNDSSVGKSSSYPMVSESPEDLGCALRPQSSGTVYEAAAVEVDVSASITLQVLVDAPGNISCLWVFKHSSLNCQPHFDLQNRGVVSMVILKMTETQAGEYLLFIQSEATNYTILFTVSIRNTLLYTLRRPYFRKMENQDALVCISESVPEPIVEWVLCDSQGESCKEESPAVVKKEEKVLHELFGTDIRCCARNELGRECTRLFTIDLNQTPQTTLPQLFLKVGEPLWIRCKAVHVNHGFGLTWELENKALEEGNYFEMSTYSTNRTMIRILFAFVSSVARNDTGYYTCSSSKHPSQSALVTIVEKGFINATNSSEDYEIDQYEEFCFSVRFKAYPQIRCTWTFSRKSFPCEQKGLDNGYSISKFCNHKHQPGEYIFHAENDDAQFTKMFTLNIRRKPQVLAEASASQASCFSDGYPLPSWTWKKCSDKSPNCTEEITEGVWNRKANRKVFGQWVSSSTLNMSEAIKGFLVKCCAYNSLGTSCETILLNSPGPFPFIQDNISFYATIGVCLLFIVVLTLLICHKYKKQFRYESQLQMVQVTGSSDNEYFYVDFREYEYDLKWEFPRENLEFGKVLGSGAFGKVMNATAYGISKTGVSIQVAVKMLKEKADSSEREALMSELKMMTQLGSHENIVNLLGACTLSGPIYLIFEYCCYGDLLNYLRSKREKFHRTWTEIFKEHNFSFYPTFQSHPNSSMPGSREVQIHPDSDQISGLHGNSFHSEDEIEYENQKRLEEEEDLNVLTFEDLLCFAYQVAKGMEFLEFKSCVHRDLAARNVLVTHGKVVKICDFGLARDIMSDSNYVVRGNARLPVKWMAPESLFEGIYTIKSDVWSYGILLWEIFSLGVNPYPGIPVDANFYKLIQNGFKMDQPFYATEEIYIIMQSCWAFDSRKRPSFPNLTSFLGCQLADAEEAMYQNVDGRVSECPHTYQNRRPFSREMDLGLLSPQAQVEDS
Procedure: FLT3 protein kinase activity was measured using the Caliper mobility shift assay. The compound was dissolved in DMSO and diluted with a kinase buffer (50 mM HEPES, pH 7.5, 0.0015% Brij-35, 2 mM DTT), and 5 μL of a 5-fold final concentration of the compound (10% DMSO) was added to a 384-well plate. After adding 10 μL of 2.5-fold FLT3 enzyme solution, incubate for 10 minutes at room temperature, and then add 10 μL of a 2.5-fold substrate (FAM-labeled polypeptide and ATP) solution. After incubation at 28° C. for 60 minutes, the reaction was stopped by adding 25 μL of stop solution (100 mM HEPES, 0.015% Brij-35, 0.2% Coating Reagent #3, 50 mM EDTA, pH 7.5). Conversion rate data was read on a Caliper EZ Reader II (Caliper Life Sciences). The conversion rate was converted into inhibition rate data (% inhibition rate=(max−conversion rate)/(max−min)*100). Where max is the conversion of the DMSO control and min is the conversion of the enzyme-free control Curves were plotted with compound concentration and inhibition rate on the horizontal and vertical coordinates, and the curve was fitted using XLFit excel add-in version 4.3.1 software and IC50 was calculated.

Chain of Jak2 (O60674 whole entry, species assumed): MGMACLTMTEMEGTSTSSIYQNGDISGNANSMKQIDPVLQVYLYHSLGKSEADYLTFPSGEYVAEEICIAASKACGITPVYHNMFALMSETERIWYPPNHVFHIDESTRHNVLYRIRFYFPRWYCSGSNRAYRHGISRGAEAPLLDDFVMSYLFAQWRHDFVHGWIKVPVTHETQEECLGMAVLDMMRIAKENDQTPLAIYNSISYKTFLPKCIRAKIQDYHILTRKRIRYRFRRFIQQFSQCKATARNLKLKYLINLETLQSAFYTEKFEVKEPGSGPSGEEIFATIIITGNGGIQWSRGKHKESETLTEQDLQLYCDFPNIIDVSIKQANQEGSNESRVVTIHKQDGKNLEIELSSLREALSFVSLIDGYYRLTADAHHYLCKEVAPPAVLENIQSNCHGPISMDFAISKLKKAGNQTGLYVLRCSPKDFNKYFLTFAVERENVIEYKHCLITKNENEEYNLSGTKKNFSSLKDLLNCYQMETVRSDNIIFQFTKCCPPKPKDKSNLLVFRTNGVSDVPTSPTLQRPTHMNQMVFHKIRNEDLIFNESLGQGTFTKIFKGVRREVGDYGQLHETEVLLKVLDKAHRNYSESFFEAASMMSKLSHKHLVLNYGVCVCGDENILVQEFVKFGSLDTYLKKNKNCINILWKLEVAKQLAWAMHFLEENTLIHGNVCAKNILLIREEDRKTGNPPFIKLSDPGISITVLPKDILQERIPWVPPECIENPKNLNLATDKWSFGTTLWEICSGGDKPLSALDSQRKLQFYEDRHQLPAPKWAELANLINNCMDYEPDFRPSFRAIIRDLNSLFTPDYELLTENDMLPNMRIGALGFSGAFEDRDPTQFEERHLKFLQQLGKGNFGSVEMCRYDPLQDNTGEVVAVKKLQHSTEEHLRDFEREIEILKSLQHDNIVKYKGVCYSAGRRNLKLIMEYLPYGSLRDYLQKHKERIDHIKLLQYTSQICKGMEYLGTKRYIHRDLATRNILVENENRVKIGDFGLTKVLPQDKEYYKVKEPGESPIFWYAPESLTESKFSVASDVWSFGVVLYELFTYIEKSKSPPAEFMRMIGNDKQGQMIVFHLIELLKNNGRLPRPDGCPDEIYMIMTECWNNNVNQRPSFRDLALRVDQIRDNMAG
Chain of Jak1 (P23458 whole entry, species assumed): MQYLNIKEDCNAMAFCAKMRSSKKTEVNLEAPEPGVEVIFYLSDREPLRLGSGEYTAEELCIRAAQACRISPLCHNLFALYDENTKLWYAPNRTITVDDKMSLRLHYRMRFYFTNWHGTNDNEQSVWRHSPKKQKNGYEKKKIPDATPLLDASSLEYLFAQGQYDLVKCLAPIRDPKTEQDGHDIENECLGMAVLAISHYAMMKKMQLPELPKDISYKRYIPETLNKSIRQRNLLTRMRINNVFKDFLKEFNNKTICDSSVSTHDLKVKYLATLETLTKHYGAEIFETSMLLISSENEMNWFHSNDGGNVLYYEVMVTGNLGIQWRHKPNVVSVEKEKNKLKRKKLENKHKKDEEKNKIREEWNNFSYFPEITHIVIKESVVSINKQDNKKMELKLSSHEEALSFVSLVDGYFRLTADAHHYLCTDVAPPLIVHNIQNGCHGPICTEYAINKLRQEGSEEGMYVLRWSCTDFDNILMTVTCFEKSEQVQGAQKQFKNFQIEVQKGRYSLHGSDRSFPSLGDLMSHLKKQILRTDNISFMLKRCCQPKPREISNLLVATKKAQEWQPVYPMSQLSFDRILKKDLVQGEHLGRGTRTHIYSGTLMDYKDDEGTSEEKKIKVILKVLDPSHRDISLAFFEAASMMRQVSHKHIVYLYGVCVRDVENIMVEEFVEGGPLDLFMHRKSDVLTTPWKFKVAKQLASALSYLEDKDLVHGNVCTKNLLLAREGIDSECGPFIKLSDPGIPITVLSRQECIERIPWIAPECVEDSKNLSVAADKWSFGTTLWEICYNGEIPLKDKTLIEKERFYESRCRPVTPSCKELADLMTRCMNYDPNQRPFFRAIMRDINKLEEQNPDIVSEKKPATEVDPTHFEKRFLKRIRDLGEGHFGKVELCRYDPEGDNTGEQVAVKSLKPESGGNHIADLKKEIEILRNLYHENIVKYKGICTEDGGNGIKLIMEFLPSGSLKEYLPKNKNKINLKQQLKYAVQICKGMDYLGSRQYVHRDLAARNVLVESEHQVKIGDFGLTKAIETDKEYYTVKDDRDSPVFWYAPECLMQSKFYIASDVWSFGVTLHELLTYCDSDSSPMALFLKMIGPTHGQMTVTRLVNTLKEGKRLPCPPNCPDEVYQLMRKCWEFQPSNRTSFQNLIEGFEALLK
Chain of EGFR (T790M/L858R) (P00533 25-1210 T790M/L858R): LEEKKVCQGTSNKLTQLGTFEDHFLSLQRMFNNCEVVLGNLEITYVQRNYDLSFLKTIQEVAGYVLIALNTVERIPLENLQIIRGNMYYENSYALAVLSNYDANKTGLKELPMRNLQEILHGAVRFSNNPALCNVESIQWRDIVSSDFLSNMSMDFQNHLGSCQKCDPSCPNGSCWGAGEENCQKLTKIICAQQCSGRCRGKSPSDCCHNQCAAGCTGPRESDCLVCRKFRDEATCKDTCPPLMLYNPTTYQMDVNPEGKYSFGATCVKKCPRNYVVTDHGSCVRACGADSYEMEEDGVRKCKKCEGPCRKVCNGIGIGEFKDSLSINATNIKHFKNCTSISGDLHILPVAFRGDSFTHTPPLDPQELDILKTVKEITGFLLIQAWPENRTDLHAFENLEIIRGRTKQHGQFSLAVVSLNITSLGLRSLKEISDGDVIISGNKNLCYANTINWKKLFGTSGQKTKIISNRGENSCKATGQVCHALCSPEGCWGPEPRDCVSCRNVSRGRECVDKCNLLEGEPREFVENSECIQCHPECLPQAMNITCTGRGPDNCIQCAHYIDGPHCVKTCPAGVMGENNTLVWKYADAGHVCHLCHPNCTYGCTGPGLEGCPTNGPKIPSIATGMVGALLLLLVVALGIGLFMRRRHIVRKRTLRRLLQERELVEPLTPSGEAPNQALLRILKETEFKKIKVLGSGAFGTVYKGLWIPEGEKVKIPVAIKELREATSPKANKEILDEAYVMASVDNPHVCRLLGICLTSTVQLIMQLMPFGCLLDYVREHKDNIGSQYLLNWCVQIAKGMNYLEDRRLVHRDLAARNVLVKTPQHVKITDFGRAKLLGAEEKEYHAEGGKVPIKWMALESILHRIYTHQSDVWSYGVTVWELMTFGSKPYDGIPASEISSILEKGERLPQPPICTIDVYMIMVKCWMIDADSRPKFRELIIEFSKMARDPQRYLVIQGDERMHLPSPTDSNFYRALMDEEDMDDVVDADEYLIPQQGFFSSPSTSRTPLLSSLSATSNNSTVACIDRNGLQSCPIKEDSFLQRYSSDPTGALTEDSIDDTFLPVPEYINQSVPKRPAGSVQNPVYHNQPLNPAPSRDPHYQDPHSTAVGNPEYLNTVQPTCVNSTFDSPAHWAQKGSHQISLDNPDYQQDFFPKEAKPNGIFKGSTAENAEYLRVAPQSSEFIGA
Chain of EGFR (P00533 25-1210): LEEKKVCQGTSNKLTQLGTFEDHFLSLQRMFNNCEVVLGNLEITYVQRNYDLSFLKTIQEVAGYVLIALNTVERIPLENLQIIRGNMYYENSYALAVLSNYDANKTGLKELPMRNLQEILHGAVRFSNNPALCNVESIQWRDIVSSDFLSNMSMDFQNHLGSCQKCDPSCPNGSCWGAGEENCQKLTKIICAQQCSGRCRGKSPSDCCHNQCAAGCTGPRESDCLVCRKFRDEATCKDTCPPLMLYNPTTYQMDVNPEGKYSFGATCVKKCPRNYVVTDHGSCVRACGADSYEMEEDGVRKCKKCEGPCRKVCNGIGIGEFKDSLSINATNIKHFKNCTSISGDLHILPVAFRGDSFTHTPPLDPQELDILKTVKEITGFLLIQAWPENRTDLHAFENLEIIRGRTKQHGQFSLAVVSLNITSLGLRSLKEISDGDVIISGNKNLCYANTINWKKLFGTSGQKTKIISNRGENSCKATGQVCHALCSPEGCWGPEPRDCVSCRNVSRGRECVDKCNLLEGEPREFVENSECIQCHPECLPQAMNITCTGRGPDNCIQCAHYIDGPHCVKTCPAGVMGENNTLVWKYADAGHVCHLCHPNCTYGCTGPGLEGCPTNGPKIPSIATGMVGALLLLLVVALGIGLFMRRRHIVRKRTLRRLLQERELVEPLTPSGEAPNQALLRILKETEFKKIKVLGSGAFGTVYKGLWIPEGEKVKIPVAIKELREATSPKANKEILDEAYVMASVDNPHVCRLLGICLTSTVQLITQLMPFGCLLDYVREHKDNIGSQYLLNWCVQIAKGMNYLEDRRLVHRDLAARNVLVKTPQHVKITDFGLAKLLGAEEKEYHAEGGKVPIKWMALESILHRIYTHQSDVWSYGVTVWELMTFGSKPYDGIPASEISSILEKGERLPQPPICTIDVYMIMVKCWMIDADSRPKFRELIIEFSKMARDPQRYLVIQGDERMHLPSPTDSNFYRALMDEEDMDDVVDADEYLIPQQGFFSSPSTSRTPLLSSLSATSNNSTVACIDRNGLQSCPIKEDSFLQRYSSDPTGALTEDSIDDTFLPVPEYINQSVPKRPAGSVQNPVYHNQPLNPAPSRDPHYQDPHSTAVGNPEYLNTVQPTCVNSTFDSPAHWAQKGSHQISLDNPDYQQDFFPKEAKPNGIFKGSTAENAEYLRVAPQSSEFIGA

| IC50 [3] [nM] | IC50 [4] [nM] | IC50 [5] [nM] | IC50 [7] [nM] | SMILES | other results |
| --- | --- | --- | --- | --- | --- |
| – | – | – | – | C=CC(=O)Nc1cccc(Nc2nc(Nc3ccc4c(c3)OC[C@H]3CN(C)CC(=O)N43)ncc2C(F)(F)F)c1 [Compound A9R] | IC50 [1]: < 10 nM; IC50 [2]: < 100 nM |
| – | – | – | – | C=CC(=O)Nc1cccc(Nc2nc(Nc3ccc4c(c3)OC[C@@H]3CN(C)CC(=O)N43)ncc2C(F)(F)F)c1 [Compound A9S] | IC50 [1]: < 10 nM; IC50 [2]: < 100 nM |
| < 10 | < 100 | < 10 | – | CCS(=O)(=O)N1CCN2c3ccc(Nc4ncc(C(N)=O)c(NC5CC5)n4)cc3OC[C@H]2C1 [Compound C1R] | – |
| < 50 | < 500 | < 20 | – | CN1CCC(N2CCN3c4ccc(Nc5ncc(C(N)=O)c(NC6CC6)n5)cc4OC[C@H]3C2)CC1 [Compound C2R] | – |
| < 50 | < 100 | < 10 | – | CC(=O)N1CCN2c3ccc(Nc4ncc(C(N)=O)c(NC5CC5)n4)cc3OC[C@H]2C1 [Compound C3R] | – |
| < 50 | < 500 | < 20 | – | NC(=O)c1cnc(Nc2ccc3c(c2)OC[C@H]2CN(C4CCOCC4)CCN32)nc1NC1CC1 [Compound C4R] | – |
| < 50 | < 100 | < 10 | – | CN1CCN2c3ccc(Nc4ncc(C(N)=O)c(NC5CC5)n4)cc3OC[C@H]2C1 [Compound C5R] | – |
| < 50 | < 500 | < 50 | – | NC(=O)c1cnc(Nc2ccc3c(c2)OC[C@H]2CN(C(=O)C(F)(F)F)CCN32)nc1NC1CC1 [Compound C6R] | – |
| < 10 | – | < 10 | – | NC(=O)c1cnc(Nc2ccc3c(c2)OC[C@H]2CN(S(=O)(=O)C4CC4)CCN32)nc1NC1CC1 [Compound C10R] | Cmax [6]: 451 ng/mL; Tmax [6]: 0.5 h; half-life [6]: 2.41 h; AUC(0-t) ([6]; read-out: AUC(0-24)): 1240 ng·h/mL |
| – | – | – | < 10 | CCc1nc(C(N)=O)c(Nc2ccc3c(c2)OC[C@H]2COCCN32)nc1NC1CCOCC1 [Compound D2R] | – |
| – | – | – | < 10 | CCc1nc(C(N)=O)c(Nc2ccc3c(c2)OC[C@@H]2COCCN32)nc1NC1CCOCC1 [Compound D2S] | – |
| – | – | – | < 10 | CCc1nc(C(N)=O)c(Nc2ccc3c(c2)OC[C@H]2CN(CC(F)(F)F)CCN32)nc1NC1CCOCC1 [Compound D3R] | – |
| – | – | – | < 1 | CCc1nc(C(N)=O)c(Nc2ccc3c(c2)OC[C@H]2CN(C4CC4)CCN32)nc1NC1CCOCC1 [Compound D4R] | – |
| – | – | – | < 10 | CCc1nc(C(N)=O)c(Nc2ccc3c(c2)OC[C@@H]2CN(C)CC(=O)N32)nc1NC1CCOCC1 [Compound D5S] | – |
